Experimental data taken from patent US20150315211A1, “SMALL MOLECULES FOR THE MODULATION OF MCL-1 AND METHODS OF MODULATING CELL DEATH, CELL DIVISION, CELL DIFFERENTIATION AND METHODS OF TREATING DISORDERS” (priority 2010, published 2015).
Like-named read-outs stand apart in the source and are kept apart here.

What was measured:
[1] = tested on: MCL-1ΔNΔC; assay: High-throughput competitive FP binding screen, FITC-MCL-1 SAHB/MCL-1ΔNΔC interaction
[2] = target: BCL-XLΔC (Homo sapiens, UniProt Q07817); assay: High-throughput competitive FP binding screen, FITC-BAD BH3/BCL-XLΔC interaction
[3] = target: MCL-1ΔNΔC (Homo sapiens, UniProt Q07820); assay: High-throughput competitive FP binding screen, FITC-MCL-1 SAHB/MCL-1ΔNΔC interaction; set-up: the C-terminal alpha-helix was deleted from each of these constructs; GST (N, cleaved yes); made in house
[4] = selectivity for MCL-1ΔNΔC over BCL-XLΔC targeting (BCL-XL % Bound minus MCL-1 % Bound)
[5] = FITC-BAD BH3/BCL-XLΔC interaction pair, competitive FP screen
[6] = FITC-MCL-1 SAHB/MCL-1ΔNΔC interaction pair, competitive FP screen

Sequence of BCL-XLΔC (Q07817 1-212 limits assumed, stated change not applied): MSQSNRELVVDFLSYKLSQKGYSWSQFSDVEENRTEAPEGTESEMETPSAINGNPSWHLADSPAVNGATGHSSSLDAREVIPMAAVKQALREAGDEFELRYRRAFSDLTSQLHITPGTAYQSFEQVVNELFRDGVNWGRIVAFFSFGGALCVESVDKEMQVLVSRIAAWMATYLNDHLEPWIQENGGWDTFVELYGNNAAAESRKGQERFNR
Sequence of MCL-1ΔNΔC (Homo sapiens, UniProt Q07820) (Q07820 172-320 limits assumed, stated change not applied): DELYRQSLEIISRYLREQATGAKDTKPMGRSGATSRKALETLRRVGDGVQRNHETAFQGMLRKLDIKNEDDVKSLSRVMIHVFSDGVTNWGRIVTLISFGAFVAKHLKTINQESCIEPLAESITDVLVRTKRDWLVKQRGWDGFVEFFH

Oc1c(Cl)cc(Cl)cc1Sc1cc(Cl)cc(Cl)c1Cl
Spec Values [1, 4]: 73.22
BCL-XL % Bound [2, 5]: 100.4%
MCL-1% Bound [3, 6]: 27.2%

Cc1cc2c(C(C)C)c(O)c(O)c(C=O)c2c(O)c1-c1c(C)cc2c(C(C)C)c(O)c(O)c(C=O)c2c1O.[Na+].[Na+]
Spec Values [1]: 97.07
BCL-XL % Bound [2]: 101%
MCL-1% Bound [3]: 3.955%

O=C(/C=C/c1ccco1)Nc1ccc(Br)cc1
Spec Values [1, 4]: 48.95
BCL-XL % Bound [2, 5]: 96.9%
MCL-1% Bound [3, 6]: 47.95%

Cc1cc(NC(=O)/C=C/c2ccco2)n(-c2nc3ccccc3n2Cc2cccc(Oc3ccccc3)c2)n1
Spec Values [1, 4]: 48.1
BCL-XL % Bound [2, 5]: 104.4%
MCL-1% Bound [3, 6]: 56.33%

Cc1ccc(/C=C/C(=O)N2CCN(C(c3ccccc3)c3ccccc3)CC2)o1
Spec Values [1, 4]: 48.08
BCL-XL % Bound [2, 5]: 103.2%
MCL-1% Bound [3, 6]: 55.15%

O=C(/C=C/c1ccco1)Nc1ccc2ccccc2c1
Spec Values [1, 4]: 48.07
BCL-XL % Bound [2, 5]: 112.7%
MCL-1% Bound [3, 6]: 64.64%

Cc1ccc(/C=C2\C(=O)N(c3ccccc3)c3ccccc32)o1
Spec Values [1, 4]: 47.36
BCL-XL % Bound [2, 5]: 110.1%
MCL-1% Bound [3, 6]: 62.72%

COc1ccc(-c2nc3scc(CCNC(=O)/C=C/c4ccco4)n3n2)cc1
Spec Values [1, 4]: 46.24
BCL-XL % Bound [2, 5]: 86.75%
MCL-1% Bound [3, 6]: 40.51%

O=C(/C=C/c1ccco1)Nc1cccc(-c2nc3ccccc3o2)c1
Spec Values [1, 4]: 45.91
BCL-XL % Bound [2, 5]: 112%
MCL-1% Bound [3, 6]: 66.09%

O=C(/C=C/c1ccco1)NCc1ccccc1
Spec Values [1, 4]: 45.66
BCL-XL % Bound [2, 5]: 101.8%
MCL-1% Bound [3, 6]: 56.1%

CN(Cc1ccc(-c2ccc(Br)cc2)o1)C(=O)c1ccc(S(N)(=O)=O)cc1
Spec Values [1, 4]: 45.66
BCL-XL % Bound [2, 5]: 115.2%
MCL-1% Bound [3, 6]: 69.53%

Cc1ccc(CN(C)C(=O)c2ccccc2OCCOc2ccccc2)o1
Spec Values [1, 4]: 45.38
BCL-XL % Bound [2, 5]: 114.2%
MCL-1% Bound [3, 6]: 68.8%

CC1CCN(C2=NN3C(=N)C(Cc4ccc(SCc5ccco5)o4)C(=O)N=C3S2)CC1 (stereo not shown)
Spec Values [1, 4]: 70.38
BCL-XL % Bound [2, 5]: 84.68%
MCL-1% Bound [3, 6]: 14.3%

Cc1ccccc1OCC1=NN2C(=N)/C(=C\c3cccn3-c3cccc(Cl)c3)C(=O)N=C2S1
Spec Values [1, 4]: 67.61
BCL-XL % Bound [2, 5]: 92.89%
MCL-1% Bound [3, 6]: 25.28%

Cc1ccccc1OCC1=NN2C(=N)/C(=C\c3ccc(SCc4ccco4)o3)C(=O)N=C2S1
Spec Values [1, 4]: 54.65
BCL-XL % Bound [2, 5]: 73.83%
MCL-1% Bound [3, 6]: 19.18%

CS(=O)(=O)C1=NN2C(=N)/C(=C\c3ccc(-c4ccc(Cl)cc4)o3)C(=O)N=C2S1
Spec Values [1, 4]: 49.33
BCL-XL % Bound [2, 5]: 82.61%
MCL-1% Bound [3, 6]: 33.28%

CCCCSC1=C(C#N)C(=O)NC(c2ccc(OC)cc2)S1 (stereo not shown)
Spec Values [1, 4]: 74.73
BCL-XL % Bound [2, 5]: 99.33%
MCL-1% Bound [3, 6]: 24.59%

CCCCSC1=C(C#N)C(=O)NC(c2ccco2)S1 (stereo not shown)
Spec Values [1, 4]: 73.94
BCL-XL % Bound [2, 5]: 92.91%
MCL-1% Bound [3, 6]: 18.96%

CCSC1=C(C#N)C(=O)NC(c2ccc(O)cc2)S1 (stereo not shown)
Spec Values [1, 4]: 69.65
BCL-XL % Bound [2, 5]: 84.82%
MCL-1% Bound [3, 6]: 15.17%

CCSC1=C(C#N)C(=O)NC(c2ccc(N(C)C)cc2)S1 (stereo not shown)
Spec Values [1, 4]: 49.2
BCL-XL % Bound [2, 5]: 79.68%
MCL-1% Bound [3, 6]: 30.49%

CCCOC(=O)c1cc(-c2ccc(/C=C3\C(=O)NC(=O)C(C#N)=C3C)o2)ccc1Cl
Spec Values [1, 4]: 97.76
BCL-XL % Bound [2, 5]: 87.16%
MCL-1% Bound [3, 6]: −10.6%

CC1=C(C#N)C(=O)N(CCc2ccccc2)C(=O)/C1=C/c1ccc(-c2ccc(S(N)(=O)=O)cc2)o1
Spec Values [1, 4]: 90.31
BCL-XL % Bound [2, 5]: 97.35%
MCL-1% Bound [3, 6]: 7.037%

CC1=C(C#N)C(=O)N(C)C(=O)/C1=C/c1ccc(-c2cccc(Cl)c2C)o1
Spec Values [1, 4]: 82.88
BCL-XL % Bound [2, 5]: 86.24%
MCL-1% Bound [3, 6]: 3.369%

CCCOC(=O)c1cc(-c2ccc(/C=C3\C(=O)N(CCCO)C(=O)C(C#N)=C3C)o2)ccc1Cl
Spec Values [1, 4]: 82.57
BCL-XL % Bound [2, 5]: 75.5%
MCL-1% Bound [3, 6]: −7.072%

CCCN1C(=O)C(C#N)=C(C)/C(=C\c2ccc(-c3ccc(Br)cc3)o2)C1=O
Spec Values [1, 4]: 81.6
BCL-XL % Bound [2, 5]: 102.2%
MCL-1% Bound [3, 6]: 20.59%

CC1=C(C#N)C(=O)N(CC(C)O)C(=O)/C1=C/c1ccc(-c2ccc(C(=O)OC(C)C)cc2)o1 (stereo not shown)
Spec Values [1, 4]: 77.49
BCL-XL % Bound [2, 5]: 107.7%
MCL-1% Bound [3, 6]: 30.2%

CC1=C(C#N)C(=O)N(CC(C)O)C(=O)/C1=C/c1ccc(-c2ccc(Cl)cc2)o1 (stereo not shown)
Spec Values [1, 4]: 74.32
BCL-XL % Bound [2, 5]: 89.37%
MCL-1% Bound [3, 6]: 15.04%

C=CCN1C(=O)C(C#N)=C(C)/C(=C\c2ccc(-c3cccc(C(=O)O)c3)o2)C1=O
Spec Values [1, 4]: 57.81
BCL-XL % Bound [2, 5]: 89.24%
MCL-1% Bound [3, 6]: 31.43%

CC1=C(C#N)C(=O)N(CCc2ccccc2)C(=O)/C1=C/c1ccc(-c2ccc3c(c2)COC3=O)o1
Spec Values [1, 4]: 53.97
BCL-XL % Bound [2, 5]: 84.79%
MCL-1% Bound [3, 6]: 30.81%

CC1=C(C#N)C(O)=NC(=O)/C1=C/c1ccc(-c2cccc(C(=O)O)c2)o1
Spec Values [1, 4]: 52.9
BCL-XL % Bound [2, 5]: 89.7%
MCL-1% Bound [3, 6]: 36.81%

COC(=O)c1ccc(-c2ccc(/C=C3/C(=O)N(C)C(=O)C(C#N)=C3C)o2)cc1
Spec Values [1, 4]: 52.77
BCL-XL % Bound [2, 5]: 91.59%
MCL-1% Bound [3, 6]: 38.82%

CC1=C(C#N)C(=O)N(CCc2ccccc2)C(=O)/C1=C\c1ccc(-c2cccc(Cl)c2)o1
Spec Values [1, 4]: 49.43
BCL-XL % Bound [2, 5]: 78.77%
MCL-1% Bound [3, 6]: 29.33%

O=c1oc2cc(Cl)c(O)c(Cl)c2s1
Spec Values [1, 4]: 109.9
BCL-XL % Bound [2, 5]: 104.7%
MCL-1% Bound [3, 6]: −5.219%

O=c1oc2c(-c3cccc(Cl)c3)cc(O)cc2s1
Spec Values [1, 4]: 64.95
BCL-XL % Bound [2, 5]: 76.15%
MCL-1% Bound [3, 6]: 11.2%

Cc1ccc(C)c(S(=O)(=O)Nc2cc(Cl)c3oc(=O)sc3c2)c1
Spec Values [1, 4]: 61.36
BCL-XL % Bound [2, 5]: 86.74%
MCL-1% Bound [3, 6]: 25.38%

Cc1cccc(C(=O)Oc2ccc3oc(=O)sc3c2)c1
Spec Values [1, 4]: 47.88
BCL-XL % Bound [2, 5]: 92.24%
MCL-1% Bound [3, 6]: 44.36%

C=CCN1C(=O)/C(=C\c2ccc(OC)cc2)C(=O)NC1=S
Spec Values [1]: 76
BCL-XL % Bound [2]: 95.09%
MCL-1% Bound [3]: 19.08%

CCN1C(=O)C(=Cc2ccc(O)c(I)c2)C(=O)N(CC)C1=S
Spec Values [1]: 61.04
BCL-XL % Bound [2]: 100.4%
MCL-1% Bound [3]: 39.32%

C=CCN1C(=O)/C(=C\c2ccc(N(CC)CC)cc2)C(=O)NC1=S
Spec Values [1]: 60.35
BCL-XL % Bound [2]: 102.2%
MCL-1% Bound [3]: 41.82%

Cc1sc(-n2c(C)cc(C=C3C(=O)NC(=S)NC3=O)c2C)c(C#N)c1C
Spec Values [1]: 56.82
BCL-XL % Bound [2]: 102%
MCL-1% Bound [3]: 45.2%

CCOc1cc(C=C2C(=O)N(C)C(=S)N(C)C2=O)ccc1OC(C)C(=O)O (stereo not shown)
Spec Values [1]: 56.22
BCL-XL % Bound [2]: 98.2%
MCL-1% Bound [3]: 41.99%

CCN1C(=O)C(=Cc2cccn2C)C(=O)N(CC)C1=S
Spec Values [1]: 53.66
BCL-XL % Bound [2]: 105.7%
MCL-1% Bound [3]: 52.01%

CSc1ncc(/C=C2/C(=O)NC(=O)N(C3CCCCC3)C2=O)cn1
Spec Values [1]: 52.58
BCL-XL % Bound [2]: 99%
MCL-1% Bound [3]: 46.42%

O=C1NC(=O)C(=Cc2ccc(Sc3ccc(Cl)cc3)o2)C(=O)N1
Spec Values [1]: 52.25
BCL-XL % Bound [2]: 92.22%
MCL-1% Bound [3]: 39.96%

O=C1NC(=O)N(CCc2ccc(F)cc2)C(=O)/C1=C\c1ccc(O)c(O)c1
Spec Values [1]: 50.75
BCL-XL % Bound [2]: 81.34%
MCL-1% Bound [3]: 30.59%

C=CCN1C(=O)/C(=C\c2ccc(N3CCOCC3)cc2C)C(=O)NC1=S
Spec Values [1]: 49.65
BCL-XL % Bound [2]: 82.66%
MCL-1% Bound [3]: 33.01%

Cc1ccccc1C=C1C(=O)N(C)C(=S)N(C)C1=O
Spec Values [1]: 48.03
BCL-XL % Bound [2]: 99.22%
MCL-1% Bound [3]: 51.19%

CCc1ccc(C=C2C(=O)N(C)C(=S)N(C)C2=O)cc1
Spec Values [1]: 45.4
BCL-XL % Bound [2]: 100.9%
MCL-1% Bound [3]: 55.45%

Cc1ccc(C2=NC(=O)C(Cc3cc(O)c(O)c(Br)c3)S2)cc1 (stereo not shown)
Spec Values [1, 4]: 93.98
BCL-XL % Bound [2, 5]: 96.59%
MCL-1% Bound [3, 6]: 2.607%

O=C1N=C(Nc2cccc(Cl)c2Cl)S/C1=C/c1ccco1
Spec Values [1, 4]: 73.87
BCL-XL % Bound [2, 5]: 89.44%
MCL-1% Bound [3, 6]: 15.57%

CCOC(=O)C1=C(Nc2cccc(Cl)c2)S/C(=C\c2ccco2)C1=O
Spec Values [1, 4]: 63
BCL-XL % Bound [2, 5]: 111.2%
MCL-1% Bound [3, 6]: 48.22%

O=C(O)C(Cc1ccccc1)N1C(=O)/C(=C/C=C/c2ccco2)SC1=S (stereo not shown)
Spec Values [1]: 97.44
BCL-XL % Bound [2]: 87.83%
MCL-1% Bound [3]: −9.611%

Nc1c(C(=O)NCc2ccco2)c2nc3ccccc3nc2n1CCc1ccccc1F
Spec Values [1]: 93.2
BCL-XL % Bound [2]: 99.9%
MCL-1% Bound [3]: 6.6%

O=c1c(O)c(-c2ccc(O)c(O)c2)oc2cc(O)cc(O)c12 [drawing 15]
BCL-XL % Bound [2, 5]: 105.3%
MCL-1% Bound [3, 6]: 16.69%

CC1=C(CC/C(C)=C/CCC2C=CC(C3=CC(=O)OC3O)OC2O)C(C)(C)CCC1 (stereo not shown) [drawing 17]
Spec Values [1]: 71.82

CCOc1cc(C(Nc2cccnc2)c2ccc3cccnc3c2O)ccc1O (stereo not shown) [drawing 35]
MCL-1% Bound [3, 6]: −0.3%

O=c1oc2c(O)c(O)cc3c(=O)oc4c(O)c(O)cc1c4c23 [drawing 165]
Spec Values [1, 4]: 89.32
MCL-1% Bound [3, 6]: 1.26%

CC1=C(CC/C(C)=C/CCC2C=CC(C3=CC(=O)OC3O)OC2O)C(C)(C)CCC1 (stereo not shown) [drawing 207]
Spec Values [1]: 71.82
